Test results: patent US10717749B2, “Macrocyclic sulfondiimine compounds” (BAYER PHARMA AKTIENGESELLSCHAFT, priority 2015, dated 2020)

Tested on: HeLa-MaTu-ADR
Experiment: Proliferation assay, crystal violet
Assay type: cell-based
Conditions: Homo sapiens, 96 h, 4 days, read-out: Inhibition of HeLa-MaTu-ADR cell proliferation IC50
Description: Cultivated tumour cells (HeLa, human cervical tumour cells, ATCC CCL-2; NCI—H460, human non-small cell lung carcinoma cells, ATCC HTB-177; DU 145, hormone-independent human prostate carcinoma cells, ATCC HTB-81; HeLa-MaTu-ADR, multidrug-resistant human cervical carcinoma cells, EPO-GmbH Berlin; Caco-2, human colorectal carcinoma cells, ATCC HTB-37; B16F10, mouse melanoma cells, ATCC CRL-6475) were plated at a density of 3,500 cells/well (DU145), 3,000 cells/well (HeLa-MaTu-ADR), 1,500 cells/well (NCI—H460), 3,000 cells/well (HeLa), 2,000 cells/well (Caco-2), or 1,000 cells/well (B16F10) in a 96-well multititer plate in 150 μL of their respective growth medium supplemented 10% fetal calf serum. After 24 hours, the cells of one plate (zero-point plate) were stained with crystal violet (see below), the test substances were added in various concentrations (0 μM, as well as in the range of 0.0001-10 μM) employing HP Dispenser. The cells were incubated for 4 days in the presence of test substances. Cell proliferation was determined by staining the cells with crystal violet: the cells were fixed by adding 20 μl/measuring point of an 11% glutaric aldehyde solution for 15 minutes at room temperature. After three washing cycles of the fixed cells with water, the plates were dried at room temperature. The cells were stained by adding 100 μl/measuring point of a 0.1% crystal violet solution DU 145, Caco-2, HeLa (pH 4.5) B16F10, NCI—H460, HeLa-MaTu-ADR. After three washing cycles of the stained cells with water, the plates were dried at room temperature. The dye was dissolved by adding 100 μl per measuring point of a 10% acetic acid solution. The extinction was determined by photometry at a wavelength of 595/550/620 nm depending on the intensity of coloration, usually at 595 nm. The change of cell number, in percent, was calculated by normalization of the measured values to the extinction values of the zero-point plate (=0%) and the extinction of the untreated (0 μM) cells (=100%). The IC50 values (inhibitory concentration at 50% of maximal effect) were determined by means of a 4 parameter fit.

CS(=N)(=N)Cc1cc2nc(c1)OCCCOc1cc(F)ccc1-c1cc(ncc1F)N2 [Example 1, 15,19-difluoro-8-[(S-methylsulfonodiimidoyl)methyl]-3,4-dihydro-2H,11H-10,6-(azeno)-12,16-(metheno)-1,5,11,13-benzodioxadiazacyclooctadecine]
IC50: 7.8 nM
